This experiment has as its target T1, human Edg-1 receptor (Homo sapiens, UniProt P21453).
T1 construct: FLAG (N); expressed in transfected cells; membrane preparation
The experiment in a line: GTP-γ-S assay using human Edg-1 receptors (SPA, CHO Flp-In cell membrane preparation). The format is biochemical. Conditions: test compound at 10 μM; high control 10 μM S1P regarded as 100% activation; background-corrected; triplicate; read-out: % Activation (Edg-1 receptor activation in percent of the activation by 10 μM S1P). The text has this: Determination of the Pharmacological Activity A) GTP-γ-S Assay Using Human Edg-1 Receptors
In order to determine the Edg-1 receptor activation by the compounds of the invention, a GTP-γ-S (guanosine 5′-[γ-thio]triphosphate) assay for G-protein coupled receptor binding based on the scintillation proximity assay principle was used, employing a cell membrane preparation from a CHO Flp-In cell line which constitutively overexpresses the human Edg-1 receptor.
The Flp-In™ expression system (Invitrogen, cat. no. K6010-01) allows the generation of stable mammalian cell lines into which the gene of interest has been integrated through homologous recombination at a specific genomic location called Flp Recombination Target (FRT) site by means of a Flp recombinase encoded by the pOG44 expression plasmid. The integration of the pcDNA5/FRT expression construct into the Flp-In host cell line genome results in the transcription of the gene of interest. The stably transfected cells become hygromycin-resistant.
One day prior to transfection, 200 000 Flp-In-CHO cells were seeded in Ham F-12 medium (Invitrogen, cat. no. 31765) supplemented with 10% fetal calf serum (FCS; Perbio Science, cat. no. SH30068.03) in a 6-well plate and incubated at 37° C./5% CO2 overnight. Using the FuGENE® 6 transfection reagent (Roche, cat. no. 11988387001), cells were cotransfected with the Flp recombinase expression plasmid pOG44 and a modified plasmid additionally containing the edg-1 gene (accession no. NM_001400) termed as pcDNA5-FRT-TO_nFLAG_DEST-EDG-1 with a 9:1 ratio. To obtain the modified pcDNA5-FRT-TO_nFLAG_DEST plasmid, the Invitrogen plasmid pcDNA5/FRT/TO (Invitrogen, cat. no. V6520-20) was adapted to the Gateway® (Invitrogen) cloning system by inserting a Gateway cassette containing attR recombination sites flanking a ccdB gene and a chloramphenicol-resistance gene (Gateway conversion system, Invitrogen, cat. no. 11828-029). In addition a FLAG tag epitope was added before the 5′ att recombination site to allow recombinant expression of N-terminally FLAG-tagged proteins.
For the transfection of one well, 1.08 μg of pOG44 and 0.12 μg of pcDNA5-FRT-TO_nFLAG_DEST-EDG-1 were mixed with 100 μl of serum-free Ham F-12 medium containing 6 μl of FuGENE® 6 transfection reagent. After 20 min of incubation, the transfection reagent/DNA complex was distributed dropwise on the cells. The cells were incubated for 24 h at 37° C. Then the cells from 3 wells each were transferred to a T75 flask (Greiner Cellstar®, cat. no. 658175) containing Ham F-12 medium supplemented with 10% of FCS but without antibiotic and were incubated another 24 h. 48 h after transfection, the medium was replaced by selection medium (Ham F-12 supplemented with 10% of FCS and 300 μg/ml of hygromycin B (Invitrogen, cat. no. 10687-010)). The medium was exchanged every 2 to 3 days until a resistant population of cells had grown. […] After 2 weeks of selection, the cells were transferred into T175 flasks (Greiner Cellstar®, cat. no. 660175) and cultivated for batch production. Cells were harvested from the culture flasks by short treatment (2 to 5 min) with Accutase (PAA, cat. no. L11-007), resuspended in selection medium (see above) and centrifuged at 200×g for 5 min. Cells were resuspended in a mixture of 90% of FCS and 10% of dimethylsulfoxide and stored frozen in liquid nitrogen.
A membrane preparation was obtained by standard methods from the afore-described CHO Flp-In cell line constitutively overexpressing the human Edg-1 receptor. Briefly, the cryopreserved cells were taken in culture and grown until confluency in T175 cell culture flasks (Becton Dickinson, cat. no. 35 5001). […]
T1 sequence (P21453 whole entry): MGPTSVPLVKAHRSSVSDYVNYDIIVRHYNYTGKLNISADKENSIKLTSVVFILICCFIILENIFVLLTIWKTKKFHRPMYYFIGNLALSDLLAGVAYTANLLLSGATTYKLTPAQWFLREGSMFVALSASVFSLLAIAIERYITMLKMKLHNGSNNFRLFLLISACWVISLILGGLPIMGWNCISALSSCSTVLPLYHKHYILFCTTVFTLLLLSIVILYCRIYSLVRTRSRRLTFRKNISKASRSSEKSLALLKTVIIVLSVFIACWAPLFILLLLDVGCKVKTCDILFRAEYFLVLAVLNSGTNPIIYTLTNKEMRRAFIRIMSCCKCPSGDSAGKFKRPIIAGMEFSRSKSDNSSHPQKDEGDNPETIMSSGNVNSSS
Turning to `CCCOc1nc(Oc2ccc(=O)n(C)n2)nc2oc(-c3cccc(C)c3)nc12` [Example 56, 2-methyl-6-(7-propoxy-2-(3-methyl-phenyl)-oxazolo[5,4-d]pyrimidin-5-yloxy)-2H-pyridazin-3-one], the activation at 10 µM was found to be 97%.
With `CCCOc1nc(NC2CCOCC2)nc2oc(-c3cc(F)ccc3Cl)nc12` [Example 57, [2-(2-chloro-5-fluoro-phenyl)-7-propoxy-oxazolo[5,4-d]pyrimidin-5-yl]-(tetrahydro-pyran-4-yl)-amine], the activation at 10 µM is 80%.
The value for `CCCOc1nc(Sc2nc(C)cs2)nc2oc(-c3cc(F)ccc3Cl)nc12` [Example 58, 2-(2-chloro-5-fluoro-phenyl)-5-(4-methyl-thiazol-2-ylsulfanyl)-7-propoxy-oxazolo[5,4-d]pyrimidine] was 102%; that for `CCCOc1nc(Sc2nccs2)nc2oc(-c3cc(F)ccc3Cl)nc12` [Example 59, 2-(2-chloro-5-fluoro-phenyl)-7-propoxy-5-(thiazol-2-ylsulfanyl)-oxazolo[5,4-d]pyrimidine] was 103%.
In the case of `CCCOc1nc(Oc2ccc(Cl)cc2OC)nc2oc(-c3cccc(F)c3)nc12` [Example 60, 5-(4-chloro-2-methoxy-phenoxy)-2-(3-fluoro-phenyl)-7-propoxy-oxazolo[5,4-d]pyrimidine], the activation at 10 µM stood at 80%.
With `CCCOc1nc(Oc2ccccc2)nc2oc(-c3cccc(F)c3)nc12` [Example 61, 2-(3-fluoro-phenyl)-5-phenoxy-7-propoxy-oxazolo[5,4-d]pyrimidine], the activation at 10 µM was found to be 74%.
Take `CCCOc1nc(OC2CCCCC2)nc2oc(-c3cccc(F)c3)nc12` [Example 62, 5-cyclohexyloxy-2-(3-fluoro-phenyl)-7-propoxy-oxazolo[5,4-d]pyrimidine]: the activation at 10 µM stood at 111%.
In the case of `CCCOc1nc(Oc2ccc(Cl)cc2OC)nc2oc(-c3cc(F)ccc3Cl)nc12` [Example 63, 2-(2-chloro-5-fluoro-phenyl)-5-(4-chloro-2-methoxy-phenoxy)-7-propoxy-oxazolo[5,4-d]pyrimidine], the activation at 10 µM is 80%.
Turning to `CCCOc1nc(NC2CCC(F)(F)CC2)nc2oc(-c3cc(F)ccc3Cl)nc12` [Example 64, [2-(2-chloro-5-fluoro-phenyl)-7-propoxy-oxazolo[5,4-d]pyrimidin-5-yl]-(4,4-difluoro-cyclohexyl)-amine], the activation at 10 µM came to 109%.
With `CCCOc1nc(NN2CCOCC2)nc2oc(-c3cccc(C)c3)nc12` [Example 65, morpholin-4-yl-(7-propoxy-2-(3-methyl-phenyl)-oxazolo[5,4-d]pyrimidin-5-yl)-amine], the activation at 10 µM was 105%.
For `CCCOc1nc(Oc2cc(Cl)ccc2C)nc2oc(-c3cc(F)ccc3Cl)nc12` [Example 66, 2-(2-chloro-5-fluoro-phenyl)-5-(5-chloro-2-methyl-phenoxy)-7-propoxy-oxazolo[5,4-d]pyrimidine], the activation at 10 µM stood at 106%.
In the case of `CCCOc1nc(Oc2cc(Cl)ccc2C)nc2oc(-c3cccc(F)c3)nc12` [Example 67, 5-(5-chloro-2-methyl-phenoxy)-2-(3-fluoro-phenyl)-7-propoxy-oxazolo[5,4-d]pyrimidine], the activation at 10 µM came out at 84%.
Regarding `CCCOc1nc(Oc2cccc(SC(F)(F)F)c2)nc2oc(-c3cc(F)ccc3Cl)nc12` [Example 68, 2-(2-chloro-5-fluoro-phenyl)-7-propoxy-5-(3-trifluoromethylsulfanyl-phenoxy)-oxazolo[5,4-d]pyrimidine], the activation at 10 µM is 41%.
With `CCCOc1nc(Oc2cccc(SC(F)(F)F)c2)nc2oc(-c3cccc(F)c3)nc12` [Example 69, 2-(3-fluoro-phenyl)-7-propoxy-5-(3-trifluoromethylsulfanyl-phenoxy)-oxazolo[5,4-d]pyrimidine], the activation at 10 µM came out at 41%.
In the case of `CCCOc1nc(OC2CCC(C)CC2)nc2oc(-c3cccc(C)c3)nc12` (stereo not shown) [Example 70, 5-(4-methyl-cyclohexyloxy)-7-propoxy-2-(3-methyl-phenyl)-oxazolo[5,4-d]pyrimidine], the activation at 10 µM is 77%.
`CCCOc1nc(OC2CCOCC2)nc2oc(-c3cccc(C)c3)nc12` [Example 71, 7-propoxy-5-(tetrahydro-pyran-4-yloxy)-2-(3-methyl-phenyl)-oxazolo[5,4-d]pyrimidine]: the activation at 10 µM was determined as 102%.
Next, `CCCOc1nc(Oc2cncc(F)c2)nc2oc(-c3cc(F)ccc3Cl)nc12` [Example 72, 2-(2-chloro-5-fluoro-phenyl)-5-(5-fluoro-pyridin-3-yloxy)-7-propoxy-oxazolo[5,4-d]pyrimidine]: 95%.
`CCCOc1nc(Oc2ccc(C)cc2)nc2oc(-c3cccc(C)c3)nc12` [Example 73, 7-propoxy-2-(3-methyl-phenyl)-5-p-tolyloxy-oxazolo[5,4-d]pyrimidine]: the activation at 10 µM stood at 80%.
In the case of `CCCOc1nc(Oc2ccc(Cl)c(F)c2)nc2oc(-c3cccc(C)c3)nc12` [Example 74, 5-(4-chloro-3-fluoro-phenoxy)-7-propoxy-2-(3-methyl-phenyl)-oxazolo[5,4-d]pyrimidine], the activation at 10 µM is 69%.
For the compound `CCCOc1nc(Oc2ccc(OC)cc2F)nc2oc(-c3cccc(C)c3)nc12` [Example 75, 5-(2-fluoro-4-methoxy-phenoxy)-7-propoxy-2-(3-methyl-phenyl)-oxazolo[5,4-d]pyrimidine], the activation at 10 µM turned out to be 72%.
Next, `CCCOc1nc(Oc2ccccn2)nc2oc(-c3cccc(C)c3)nc12` [Example 76, 7-propoxy-5-(pyridin-2-yloxy)-2-(3-methyl-phenyl)-oxazolo[5,4-d]pyrimidine]: 81%; `CCCOc1nc(Oc2cccnc2)nc2oc(-c3cccc(C)c3)nc12` [Example 77, 7-propoxy-5-(pyridin-3-yloxy)-2-(3-methyl-phenyl)-oxazolo[5,4-d]pyrimidine]: 111%.
As to `CCCOc1nc(Oc2ccccc2)nc2oc(-c3cc(F)ccc3Cl)nc12` [Example 78, 2-(2-chloro-5-fluoro-phenyl)-5-phenoxy-7-propoxy-oxazolo[5,4-d]pyrimidine], the activation at 10 µM is 70%.
The value for `CCCOc1nc(Oc2cc(F)ccc2C)nc2oc(-c3cc(F)ccc3Cl)nc12` [Example 79, 2-(2-chloro-5-fluoro-phenyl)-5-(5-fluoro-2-methyl-phenoxy)-7-propoxy-oxazolo[5,4-d]pyrimidine] was 64%; that for `CCCOc1nc(OC2CCCCC2)nc2oc(-c3cc(F)ccc3Cl)nc12` [Example 80, 2-(2-chloro-5-fluoro-phenyl)-5-cyclohexyloxy-7-propoxy-oxazolo[5,4-d]pyrimidine] was 46%.
`CCCOc1nc(Oc2ccc(C)c(F)c2)nc2oc(-c3cccc(F)c3)nc12` [Example 81, 5-(3-fluoro-4-methyl-phenoxy)-2-(3-fluoro-phenyl)-7-propoxy-oxazolo[5,4-d]pyrimidine]: the activation at 10 µM turned out to be 89%.
Turning to `CCCOc1nc(Oc2ccc(SC(F)(F)F)cc2)nc2oc(-c3cccc(F)c3)nc12` [Example 82, 2-(3-fluoro-phenyl)-7-propoxy-5-(4-trifluoromethylsulfanyl-phenoxy)-oxazolo[5,4-d]pyrimidine], the activation at 10 µM amounted to 107%.
With `CCCOc1nc(Oc2cccc3c2OC(C)(C)C3)nc2oc(-c3cccc(C)c3)nc12` [Example 83, 5-(2,2-dimethyl-2,3-dihydro-benzofuran-7-yloxy)-7-propoxy-2-(3-methyl-phenyl)-oxazolo[5,4-d]pyrimidine], the activation at 10 µM came to 63%.

For the origin of these results see patent US8785439B2, “2,5,7-substituted oxazolopyrimidine derivatives” (Sanofi, priority 2010, dated 2014).
